Measured values: US20250263437A1, “POLYPEPTIDE FOR REPAIRING SKIN WOUND OR MUCOSAL INJURY, AND APPLICATION THEREOF” (Sichuan Gooddoctor Panxi Pharmaceutical Co., Ltd., priority 2021, published 2025)
Where no end group is shown, it is not given here.

system: HaCaT cells; assay: Proliferation of HaCaT cells (CCK8); type: cell-based, human; settings: 0.2-0.8 μg/mL; 24 h, 48 h and 72 h; 1% serum
Description: Experimental method: Immortalized human keratinocytes (HaCaT cells) was adjusted to a concentration of 1.0×10^5 to 5.0×10^5/mL for passaging, and they were cultured at 37° C. and 5% CO2 for 24-36 h for biological activity detection. The cells were digested with 0.25% trypsin for 5 min, 1640 whole blood culture medium, the volume of which was not less than 1 time of the volume of the trypsin, was added to stop digestion, a cell suspension was collected, centrifuged at 1000 RPM for 3 min, the supernatant was discarded, 2 mL of 1640 whole blood culture medium was added to suspend the cells, 20 μL of the cell suspension was taken and stained with AOPI, the concentration of cells in the suspension was then detected by a cell counter, the suspension was prepared to a concentration of 5×10^4/mL with 1640 culture medium containing serum at a concentration of 10% and inoculated into a 96-well cell culture plate, with 100 μL per well, i.e., 5000 cells/well, and the plate was cultured at 37° C. and 5% CO2 overnight.
After 24 h, the original culture medium was discarded, and 100 μL of polypeptide compound solutions with different concentrations prepared with 1640 culture medium containing serum at a concentration of 1% were added, such that the final concentrations of the polypeptide compounds to be tested were 0.2, 0.4 and 0.8 ug/mL, respectively. In addition, an EGF control group was prepared by adding 100 μL of a recombinant human epidermal growth factor (EGF) solution prepared with 1640 culture medium containing serum at a concentration of 1%, with the final concentration being 100 ng/ml. In the model control group, an equal volume of 1640 culture medium containing serum at a concentration of 1% was added. After culturing at 37° C. and 5% CO2 for 24 h, 48 h and 72 h, the proliferation of the HaCaT cell line was detected by means of CCK8 kit.

Substance | effect on proliferation of HaCaT cells
AAVLEKLE [Compound 69] | proliferation-promoting effect
SMQASLEAEAKGKAKQD [Compound 53] | proliferation-promoting effect
SMQASLEAEAKPKAE [Compound 57] | proliferation-promoting effect

system: ethanol-induced gastric ulcer model in mice; assay: Anti-ulcer effect on ethanol-induced gastric ulcer model in mice; type: in vivo; settings: single administration; ulcer inhibition rate of test compound / ulcer inhibition rate of Compound 1
Description: Experimental animals: Six-week old C57BL/6JGPt male mice, weighing about 20 g/mouse, were selected, with 10 mice in each group, from GemPharmatech (Chengdu) Co., Ltd., animal license number: SCXK (Chuan) 2020-034. After the experimental animals were divided into groups, they were dosed according to Table 5 one day before the experiment. Among the groups, the model group was given 200 μl of pure water, and the other dose groups were given 200 μl of drug solution. After that, all the animals were fasted for 24 h with free access to water. The next day, 1 h after administration, the mice in each group were given 9 μl/g of absolute ethanol by oral gavage for modeling. After 1 h, the animals were sacrificed by cervical dislocation, the gastric cardia was ligated, the pylorus was occluded, and the whole stomach was removed. 1 mL of 1% formaldehyde solution was injected into the gastric lumen via the glandular stomach, the cardia was ligated, and the stomach was taken out and immediately immersed in 1% formaldehyde solution. After soaking for 30 min, the stomach tissue was taken out and cut open along the greater curvature. The content of the stomach was rinsed off with normal saline, the injury of the gastric mucosa in the mice were observed and measured after being laid flat, and the ulcer index and ulcer inhibition rate were calculated; panoramic photos of the stomach were taken; and finally, the gastric tissue sample was immersed in formalin and fixed. Calculation method for ulcer index: If the length of cord-like injury was greater than 1 mm, the length thereof was measured, with 1 point per millimeter; if the width thereof was greater than 1 mm, the score thereof was doubled according to the number of millimeters of the width; and if the length was less than 1 mm, a score of 0.5 was given, and the scores were added up to obtain the ulcer index of the animal. Method of data statistics: the ulcer index was expressed as mean±standard deviation; the ulcer inhibition rate was calculated by using the median value and mean value of the ulcer index in each dosage group and simulation group; and the data were statistically analyzed by means of Excel, and the difference data of the gastric ulcer index were statistically analyzed by means of independent sample T test.

Substance | Anti-ulcer activity (mean relative ulcer inhibition rate)
AAVLEKLE [Compound 69] | 1.25
AEPVPLEAEAKGKAE [Compound 54] | 0.59
AMQASLEAEAKGKAE [Compound 29] | 1.00
EAEAAGKAE [Compound 61] | 0.52
EAEAKGK [Compound 46] | 0.47
EAEAKGKAE [Compound 7] | 1.69
FDALKQQFQAFQLE [Compound 62] | 0.89
Gln-Ala-Ser-Leu (QASL; printed: Gln-Ala-Ser-Leu) [Compound 9] | 0.59
Glu-Ala-Glu-Ala (EAEA; printed: Glu-Ala-Glu-Ala) [Compound 45] | 0.50
Gly-Lys-Ala-Glu (GKAE; printed: Gly-Lys-Ala-Glu) [Compound 10] | 0.56
PAAEPVPLEAEAKGKAE [Compound 55] | 0.20
QASLEAEAKGK [Compound 4] | 0.82
QASLEAEAKGKAE [Compound 2] | 0.45
RKDVYEAEAKGKAE [Compound 59] | 0.48
SAQASLEAEAKGKAE [Compound 16] | 0.98
SIQASLEAEAKGKAE [Compound 22] | 0.81
SLQASLEAEAKGKAE [Compound 17] | 0.74
SMAASLEAEAKGKAE [Compound 21] | 0.87
SMEASLEAEAKGKAE [Compound 37] | 0.22
SMQAALEAEAKGKAE [Compound 28] | 0.67
SMQASAEAEAKGKAE [Compound 15] | 0.72

Substance | Anti-ulcer activity (mean relative ulcer inhibition rate)
SMQASL [Compound 8] | 0.89
SMQASLAAEAKGKAE [Compound 19] | 0.64
SMQASLDAEAKGKAE [Compound 38] | 1.38
SMQASLEAAAKGKAE [Compound 20] | 0.56
SMQASLEADAKGKAE [Compound 39] | 0.83
SMQASLEAEAAGKAE [Compound 18] | 0.91
SMQASLEAEAHGKAE [Compound 32] | 0.52
SMQASLEAEAK [Compound 5] | 0.84
SMQASLEAEAKAKAE [Compound 56] | 0.91
SMQASLEAEAKGAAE [Compound 26] | 0.56
SMQASLEAEAKGHAE [Compound 31] | 0.50
SMQASLEAEAKGK [Compound 3] | 0.33
SMQASLEAEAKGKAA [Compound 27] | 0.51
SMQASLEAEAKGKAD [Compound 23] | 0.70
SMQASLEAEAKGKAEA [Compound 52] | 0.67
SMQASLEAEAKGKAEL [Compound 51] | 0.62
SMQASLEAEAKGKAKQD [Compound 53] | 0.44
SMQASLEAEAKGKAKQE [Compound 58] | 0.52
SMQASLEAEAKGKAN [Compound 24] | 0.62
SMQASLEAEAKGKAQ [Compound 13] | 1.02
SMQASLEAEAKGKAQD [Compound 49] | 0.48

Substance | Anti-ulcer activity (mean relative ulcer inhibition rate)
SMQASLEAEAKGKAQE [Compound 50] | 0.09
SMQASLEAEAKGKSE [Compound 60] | 1.03
SMQASLEAEAKGRAE [Compound 25] | 0.36
SMQASLEAEAKPKAE [Compound 57] | 1.12
SMQASLEAEARGKAE [Compound 30] | 0.33
SMQASLEAESKGKAE [Compound 44] | 0.16
SMQASLEALAKGKAE [Compound 34] | 0.91
SMQASLEAQAKGKAE [Compound 36] | 0.07
SMQASLESEAKGKAE [Compound 43] | 0.30
SMQASLLAEAKGKAE [Compound 33] | 0.31
SMQASLQAEAKGKAE [Compound 35] | 0.57
SMQASLQAQAKGKAE [Compound 14] | 0.49
SMQASVEAEAKGKAE [Compound 42] | 0.84
SMQATLEAEAKGKAE [Compound 41] | 0.92
STQASLEAEAKGKAE [Compound 48] | 1.19
SVQASLEAEAKGKAE [Compound 12] | 0.68
Ser-Met (O)-Gln-Ala-Ser-Leu-Glu-Ala-Glu-Ala-Lys-Gly-Lys-Ala-Glu [Compound 11] | 1.08
TASTLEAEAKGKAE [Compound 47] | 0.61
TMQASLEAEAKGKAE [Compound 40] | 0.18
Teprenone [reference compound] | 0.5

biological target: FGFR1 (Homo sapiens, UniProt P11362); assay: FGFR receptor binding assay: ultrafiltration/mass spectrometry affinity screening to FGFR1 protein target; settings: ratio of lower-layer to upper-layer compound MS signal intensity; the greater the ratio, the stronger the affinity
Description: The affinity of the polypeptide compound prepared by the present invention to FGFR1 was tested by using a control FGFR1 allosteric inhibitor (product number SSR128129E from Sigma) as a positive compound control.
Screening for the affinity to FGFR1 was as follows: FGFR1 solutions with an appropriate concentration were taken, the positive compound SSR128129E (Sigma) at an appropriate concentration and sample solutions of the inventive polypeptide compounds, as freeze-dried powders, dissolved in protein buffers were then respectively added. After incubation at room temperature for 50 min, ultrafiltration and screening were carried out to obtain various treated solutions. An appropriate volume of acetonitrile was added to each treated solution to precipitate a protein, the solution was then centrifuged, and the supernatant was taken and analyzed by mass spectrometry.
Affinity screening conditions: One-dimensional liquid-phase conditions were: chromatographic column; PolyLC chromatographic column, mobile phase A: KH2PO4, NaCl, pH 7.5, mobile phase B: acetonitrile, column temperature: 8° C., flow rate: 1 mL/min, and injection volume: appropriate; and two-dimensional liquid-phase conditions were: chromatographic column: BONUS RRHD, mobile phase A: 0.1% formic acid aqueous solution, mobile phase B: 0.1% formic acid in acetonitrile, column temperature: 60° C., flow rate: 0.3 mL/min, and injection volume: 40 uL. Gradient elution was used, i.e., 98% A (0-1 min), 98-10% A (1-6 min), 10% A (6-7.5 min), 10-98% A (7.5-8 min), and 98% A (8-9.5 min). Mass spectrometry conditions: Agilent 6530 Q-Tof, ESI ion source, voltage 3.5 KV, mass-to-charge ratio scanning range m/z=200-3000, acquisition mode: positive ion scanning, ion source temperature: 350° C., solvent removal temperature: 300° C., and nitrogen flow rate: 8 L/min.

FGFR1, sequence (P11362 22-822, species assumed): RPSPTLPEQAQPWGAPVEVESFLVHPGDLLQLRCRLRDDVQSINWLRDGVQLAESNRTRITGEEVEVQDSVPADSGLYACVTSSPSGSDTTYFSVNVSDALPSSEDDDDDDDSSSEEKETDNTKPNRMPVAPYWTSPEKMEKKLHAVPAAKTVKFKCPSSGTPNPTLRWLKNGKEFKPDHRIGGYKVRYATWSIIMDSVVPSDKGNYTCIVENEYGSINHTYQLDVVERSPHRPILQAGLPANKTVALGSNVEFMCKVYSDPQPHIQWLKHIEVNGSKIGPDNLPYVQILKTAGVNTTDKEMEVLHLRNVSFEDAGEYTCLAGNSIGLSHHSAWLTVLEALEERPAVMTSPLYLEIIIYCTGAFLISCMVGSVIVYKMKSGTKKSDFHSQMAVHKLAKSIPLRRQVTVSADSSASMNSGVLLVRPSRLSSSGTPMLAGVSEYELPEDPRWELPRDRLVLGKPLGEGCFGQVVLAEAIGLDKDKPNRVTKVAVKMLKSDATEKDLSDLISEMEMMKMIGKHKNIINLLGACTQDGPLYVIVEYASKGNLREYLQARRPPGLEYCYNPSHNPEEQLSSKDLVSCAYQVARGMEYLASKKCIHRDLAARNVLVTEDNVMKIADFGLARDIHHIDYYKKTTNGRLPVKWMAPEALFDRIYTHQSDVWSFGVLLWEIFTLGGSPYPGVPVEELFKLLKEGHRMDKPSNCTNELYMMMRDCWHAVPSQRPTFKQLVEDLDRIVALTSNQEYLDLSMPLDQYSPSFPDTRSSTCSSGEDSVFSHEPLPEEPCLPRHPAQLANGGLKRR

Cb/Ct range | Substance
1.0-3 | AAVLEKLE [Compound 69]
1.0-3 | FDALKQQFQAFQLE [Compound 62]
